Test results: patent US6653258B1 (priority 1987, dated 2003)

Key:
[1] = tested on: foliar fungal diseases of plants; format: in vivo; design: key to disease control grading, […] (VINE): 4: no disease; 3: trace −5% of disease on untreated plants; key to disease control grading, PUCCINIA RECONDITA (WHEAT) / disease control grading, VENTURIA INAEQUALIS (APPLE) / disease control grading, CERCOSPORA ARACHIDICOLA (PEANUT) / disease control grading, PH[…] (TOMATO) / disease control grading, P[…] (RICE): 4: no disease; 3: trace −5% of disease on untreated plants; 6-25% of disease on untreated plants; 1: 26-59% of disease on untreated plants; 60-100% of disease on untreated plants; conditions: applied to soil (roots) and foliage one or two days before inoculation; for disease control grading, CERCOSPORA ARACHIDICOLA (PEANUT): Cercospora arachidicola on peanut; for disease control grading, P[…] (RICE): P[…] on rice; for disease control grading, PH[…] (TOMATO): Ph[…] on tomato; for disease control grading, PUCCINIA RECONDITA (WHEAT): Puccinia recondita on wheat; for disease control grading, VENTURIA INAEQUALIS (APPLE): Venturia inaequalis on apple; for disease control grading, […] (VINE): […] on vine
Erysiphe graminis = assay: Foliar fungal disease test on Erysiphe graminis, plants inoculated 24 hours before treatment (Table V); format: in vivo; design: key: 4: no disease; 3: trace −5% of disease on untreated plants; 6-25% of disease on untreated plants; 1: 26-59% of disease on untreated plants; 60-100% of disease on untreated plants; conditions: plants inoculated 24 hours before treatment

Row | SMILES | disease control grading, CERCOSPORA ARACHIDICOLA (PEANUT) [1] | disease control grading, P[…] (RICE) [1] | disease control grading, PH[…] (TOMATO) [1] | disease control grading, PUCCINIA RECONDITA (WHEAT) [1] | disease control grading, VENTURIA INAEQUALIS (APPLE) [1] | disease control grading, […] (VINE) [1] | disease control grading, ERYSIPHE GRAMINIS (BARLEY) (Erysiphe graminis)
1 | CO/C=C(/C(=O)OC)c1ccccc1COc1cccc([N+](=O)[O-])c1 [161 (Table I)] | 3 (trace −5% of disease on untreated plants) | 0 (60-100% of disease on untreated plants) | 1 (26-59% of disease on untreated plants) | 3 (trace −5% of disease on untreated plants) | 4 | 4 | 3 (trace −5% of disease on untreated plants)
2 | CO/C=C(/C(=O)OC)c1ccccc1COc1ccc(C#N)cc1 [38 (Table I)] | 4 | 0 (60-100% of disease on untreated plants) | 4 | 4 | 4 | 4 | 4
3 | CO/C=C(/C(=O)OC)c1ccccc1COc1ccccc1Cl [157 (Table I)] | 4 | 4 | 3 (trace −5% of disease on untreated plants) | 4 | 4 | 4 | 4
4 | CO/C=C(/C(=O)OC)c1ccccc1COc1cccc(CO)c1 [178 (Table I)] | 3 (trace −5% of disease on untreated plants) | 2 (6-25% of disease on untreated plants) | 2 (6-25% of disease on untreated plants) | 3 (trace −5% of disease on untreated plants) | 0 (60-100% of disease on untreated plants) | 4 | 0 (60-100% of disease on untreated plants)
5 | COC=C(C(=O)OC)c1ccccc1C(C)Sc1ccccc1 (stereo not shown) [2 (Table II)] | 0 (60-100% of disease on untreated plants) | 4 | 4 | 4 | 4 | 4 | 4
6 | CO/C=C(/C(=O)OC)c1ccccc1COc1ccccc1[N+](=O)[O-] [33 (Table I)] | 4 | 4 | 3 (trace −5% of disease on untreated plants) | 4 | 4 | 4 | 2 (6-25% of disease on untreated plants)
7 | CO/C=C(/C(=O)OC)c1ccccc1COc1ccc(Cl)c(Cl)c1 [45 (Table I)] | 4 | 4 | 4 | 4 | 4 | 4 | 3 (trace −5% of disease on untreated plants)
8 | CO/C=C(/C(=O)OC)c1ccccc1CSc1ccccc1 [1 (Table II)] | 0 (60-100% of disease on untreated plants) | 3 (trace −5% of disease on untreated plants) | 4 | 4 | 4 | 4 | 2 (6-25% of disease on untreated plants)
9 | CO/C=C(/C(=O)OC)c1ccccc1COc1ccccn1 [67 (Table I)] | 4 | 4 | 4 | 4 | 4 | 4 | 4
10 | CO/C=C(/C(=O)OC)c1ccccc1COc1cc(Cl)cc(Cl)c1 [162 (Table I)] | 4 | 2 (6-25% of disease on untreated plants) | 3 (trace −5% of disease on untreated plants) | 4 | 4 | 4 | 4
